How the values were obtained:
[1] = system: RS1-10 minigene (Firefly Luciferase), HEK-293T cells; assay: Luciferase induction assay, RS1-10 with splice modulator compounds in HEK-293T cells; assay type: cell-based; settings: Homo sapiens, 18 hours, n of 3, read-out: Mean fold-induction of luciferase (relative to vehicle control)
[2] = system: RS3-13 minigene (Firefly Luciferase), HEK-293T cells; assay: Luciferase induction assay, RS3-13 with splice modulator compounds in HEK-293T cells; assay type: cell-based; settings: Homo sapiens, 18 hours, n of 3, read-out: Mean fold-induction of luciferase (relative to vehicle control)
RS1-10, HEK-293T cells = assay: RS1-10 performance in HEK-293T cells; assay type: cell-based, human; settings: CMV promoter, 18 hours, FIG. 10A
Protocol: (§1) Human cell line HEK-293T cells or NIH-3T3 mouse fibroblast cell line cells were cultured in DMEM+10% FBS, collected after trypsinization, and then dispensed into 96-well plates (cell culture-treated). Each well of the plate was seeded with 1.0×10^5 cells in 100 μL culture medium. After a 1-hour incubation in the tissue culture incubator (5% CO2, 37 degrees C.), plasmid DNA was complexed with a transfection reagent, such as Lipofectamine 3000, and added to respective wells on the plate. Each well received an equivalent of 100 ng of plasmid DNA complexed with 0.15 μL Lipofectamine 3000. Triplicate wells were used for each condition tested in the experiment. The plasmid utilized in the experiments for HEK-293T cells and NIH-3T3 mouse fibroblast cells encoded a CMV promoter upstream of the RS1-10 construct that controlled the expression of a Firefly Luciferase gene followed by a SV40 polyadenylation signal. After a 10-minute incubation at room temperature, either DMSO vehicle or 24 A at specified doses was added to the wells of the plate. Plates were then incubated for 18 hours in a tissue culture incubator. Endpoint analysis was performed by adding 100 uL of a Luciferase substrate, such as Steady-Luc Firefly Luciferase substrate, to each well of the assay plate. […] Finally, the luminescent signal from each well was measured with a plate reader. […]

RS1-10, NIH-3T3 cells = assay: RS1-10 performance in NIH-3T3 cells; assay type: cell-based, mouse; settings: CMV promoter, 18 hours, FIG. 10B
Protocol: as §1

RS1-10, Flp-In-293 cells = assay: Comparison of RS1-10 Flp-In cell line with constitutive Flp-In cell line; assay type: cell-based; settings: Homo sapiens, 7 nM, 18 hours, FIG. 9G, read-out: luciferase signal relative to constitutively expressing cell line as 100%
Protocol: Single-copy insertion of RSI-10 sequence and subsequent cell-line generation was performed in Flp-In-293 cells according to manufacturer's protocols. The RS1-10 sequence fused to a Firefly Luciferase gene was cloned into a Flp-In compatible pcDNA5/FRT expression vector with a CMV promoter and BGH polyadenylation signal. The resulting Flp-In cell line carried a single-copy expression cassette of RS1-10 integrated into the genome. Similarly, a cell line constitutively expressing Firefly Luciferase from a single-copy genomic insertion was generated in Flp-In-293 cells. For the constitutive cell line, only the Firefly Luciferase gene was cloned into the pcDNA5/FRT expression vector that was used to generate the single-copy genomic insertion. Both cell lines were cultured in DMEM+10% FBS, collected after trypsinization, and then dispensed into 96-well plates (cell culture-treated). Each well of the plate was seeded with 1.0×10^5 cells in 100 μL culture medium. Subsequently, either DMSO vehicle or 24 A at specified doses was added to the wells of the plate containing the RS1-10 Flp-In 293 cells. Triplicate wells were used for each condition tested in the experiment. Plates were then incubated for 18 hours in a tissue culture incubator (5% CO2, 37 degrees C.). […]

## CCN1CC(c2ccc(-c3ccc(-c4ccc5nn(C)cc5c4)cc3O)nn2)C1 [Compound 24A, 2-[6-(1-ethylazetidin-3-yl)pyridazin-3-yl]-5-(2-methyl-2H-indazol-5-yl)phenol]
[1]; RS1-10, 100 nM
  fold induction at 0.1 µM: 74.1
[1]; RS1-10, 1,000 nM
  fold induction at 1 µM: 84
[2]; RS3-13, 100 nM
  fold induction at 0.1 µM: 6.27
[2]; RS3-13, 1,000 nM
  fold induction at 1 µM: 42.4
RS1-10, HEK-293T cells
  fold-induction of luciferase: increasing fold-induction of luciferase with increasing concentrations of 24 A
RS1-10, NIH-3T3 cells
  fold-induction of luciferase: increasing fold-induction of luciferase with increasing concentrations of 24 A
RS1-10, Flp-In-293 cells
  activity at 0.007 µM: ≥ 60%
